Assay results: patent EP4745135A1 (Gluetacs Therapeutics (Shanghai) Co., Ltd., priority 2023, dated 2025)

Columns and labels:
[1] = system: Human multiple myeloma cell (MM.1S); assay: Tumor cell proliferation inhibition (CellTiter-Meiluncell luminescent cell viability assay); conditions: Homo sapiens, MM1.S, 96 h; for inhibition at 0.01 µM: read-out: Inhibition Rate at 10 nM (%); for inhibition at 0.5 µM: read-out: Inhibition Rate at 500 nM (%); for IC50: read-out: Inhibitory activity (IC50, nM) on tumor cell proliferation, MM.1S
[2] = system: Human multiple myeloma peripheral blood B lymphocyte cell (RPMI-8226); assay: as above; conditions: RPMI-8226, 96 h; for inhibition at 0.5 µM: read-out: Inhibition Rate at 500 nM (%)
[3] = system: Human acute T lymphocytic leukemia cell (Molt4); assay: as above; conditions: MOLT-4, 96 h
Experimental: (§1) The tumor cells used herein were cultured in a cell culture medium listed in table 2 at 37°C in an incubator with 5% CO2. Prior to experimentation, all cell lines used were correctly identified by STR profiling, and tested negative for mycoplasma contamination using a mycoplasma detection kit through routine screenings.
(§2) The IC50 values of the compounds of the present disclosure (including the compounds in Table 1 and Examples) were determined using the CellTiter-Meiluncell Luminescent Cell Viability Assay Kit from Dalian Meilun Biotech Co., Ltd. The detailed procedure is as follows: Tumor cells were seeded in 96-well cell culture plates at the densities specified in Table 3. On the following day, the test compounds of the present disclosure were subjected to serial dilution. The dilution can be performed according to one of the following two methods: • (1) The first dilution method: The test compounds of the present disclosure (including the compounds in Table 1 and Examples) were subjected to 5-fold serial dilutions starting from a highest concentration of 2000 µM, resulting in a total of 9 concentrations from high to low (2000, 400, 80, 16, 3.2, 0.64, 0.128, 0.0256, 0.00512 µM). Subsequently, 0.5 µL of the test compound dilution was transferred into the 96-well plate containing the cells, with each well containing 100 µL of cell culture medium. […] Into the 96-well plate, the diluted test compounds and corresponding detection reagents were added, resulting in final test compound concentrations of 500 nM and 10 nM, respectively. The experimental procedure is described below using the diluted 2 µM test compound as an example.
(§3) 0.5 µL of the aforementioned diluted compound of the present disclosure (including the compounds in Table 1 and Examples) was added to the seeded cells in 100 µL of medium, yielding a final test compound concentration of 10 nM. After the cells were treated with the compounds of the present disclosure for a specified period, the cell viability assay reagent was added to the culture medium according to the kit's instructions to determine cell viability. […] All controls were treated using the same procedure as the compounds of the present disclosure. The growth inhibition curves for the compounds of the present disclosure were plotted using Prism GraphPad software, and the IC50 values were calculated therefrom.

[4] = system: Human myeloid monocytic leukemia cell (MV-4-11); assay: as above; conditions: MV4-11, 96 h
Experimental: as §1, §2, §3

[5] = system: Human breast cancer cell (MCF-7); assay: as above; conditions: MCF7, 96 h; for inhibition at 0.01 µM: read-out: Inhibition Rate at 10 nM (%); for inhibition at 0.5 µM: read-out: Inhibition Rate at 500 nM (%)
Experimental: as §1, §2, §3

[6] = system: Human T cell acute lymphoblastic leukemia cell (CCRF-CEM); assay: as above; conditions: 96 h
Experimental: as §1, §2, §3

[7] = system: Human acute myeloid leukemia cell line: Kasumi-1; assay: as above; conditions: Kasumi 1, 96 h
[8] = system: Human T lymphocytic leukemia cell line: Jurkat; assay: as above; conditions: 96 h; for IC50: read-out: Inhibitory activity (IC50, nM) on tumor cell proliferation, Jurkat
[9] = system: Human monocytic leukemia cell line: THP-1; assay: as above; conditions: THP-1, 96 h; for inhibition at 0.01 µM: read-out: Inhibition Rate at 10 nM (%); for inhibition at 0.5 µM: read-out: Inhibition Rate at 500 nM (%)
Experimental: as §1, §2, §3

[10] = system: Human colon cancer cell line: SW620; assay: as above; conditions: SW-620, 96 h; for inhibition at 0.01 µM: read-out: Inhibition Rate at 10 nM (%); for inhibition at 0.5 µM: read-out: Inhibition Rate at 500 nM (%)
Experimental: as §1, §2, §3

[11] = system: Human malignant melanoma cell line: A375; assay: as above; conditions: A-375, 96 h; for inhibition at 0.01 µM: read-out: Inhibition Rate at 10 nM (%); for inhibition at 0.5 µM: read-out: Inhibition Rate at 500 nM (%)
Experimental: as §1, §2, §3

CK1α = molecular target: T1, CK1α (Homo sapiens, UniProt P48729+Q96SW2); assay: Western blot, degradation of substrate protein in hPBMCs; format: cell-based
T1 construct: effects of the compounds of the present disclosure on the expression of target proteins in cells; endogenous in cells; host or cells: human PBMCs (Milecell Biotechnologies)
T1 sequence (P48729 whole entry): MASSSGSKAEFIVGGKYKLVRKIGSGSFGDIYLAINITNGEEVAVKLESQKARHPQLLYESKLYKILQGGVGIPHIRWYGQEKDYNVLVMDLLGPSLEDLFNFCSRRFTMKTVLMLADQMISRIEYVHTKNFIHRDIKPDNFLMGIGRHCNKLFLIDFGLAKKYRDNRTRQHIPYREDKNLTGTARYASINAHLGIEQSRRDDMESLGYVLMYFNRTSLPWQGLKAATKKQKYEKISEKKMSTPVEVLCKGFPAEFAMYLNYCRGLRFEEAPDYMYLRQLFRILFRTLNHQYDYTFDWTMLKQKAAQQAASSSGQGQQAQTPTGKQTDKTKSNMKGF
T1 sequence (Q96SW2 whole entry): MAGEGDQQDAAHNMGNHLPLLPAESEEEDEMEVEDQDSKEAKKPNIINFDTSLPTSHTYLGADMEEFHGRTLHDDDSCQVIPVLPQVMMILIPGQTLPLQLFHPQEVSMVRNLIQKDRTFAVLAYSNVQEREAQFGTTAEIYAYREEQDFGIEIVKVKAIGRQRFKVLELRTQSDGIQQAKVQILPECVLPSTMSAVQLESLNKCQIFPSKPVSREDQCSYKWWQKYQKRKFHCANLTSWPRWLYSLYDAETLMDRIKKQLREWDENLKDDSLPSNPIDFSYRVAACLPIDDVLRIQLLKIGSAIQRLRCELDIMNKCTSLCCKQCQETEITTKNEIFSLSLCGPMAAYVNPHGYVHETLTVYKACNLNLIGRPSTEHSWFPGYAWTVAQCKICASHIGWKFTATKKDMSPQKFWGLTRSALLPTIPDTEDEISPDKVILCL
T1 sequence (Q16531 whole entry partner): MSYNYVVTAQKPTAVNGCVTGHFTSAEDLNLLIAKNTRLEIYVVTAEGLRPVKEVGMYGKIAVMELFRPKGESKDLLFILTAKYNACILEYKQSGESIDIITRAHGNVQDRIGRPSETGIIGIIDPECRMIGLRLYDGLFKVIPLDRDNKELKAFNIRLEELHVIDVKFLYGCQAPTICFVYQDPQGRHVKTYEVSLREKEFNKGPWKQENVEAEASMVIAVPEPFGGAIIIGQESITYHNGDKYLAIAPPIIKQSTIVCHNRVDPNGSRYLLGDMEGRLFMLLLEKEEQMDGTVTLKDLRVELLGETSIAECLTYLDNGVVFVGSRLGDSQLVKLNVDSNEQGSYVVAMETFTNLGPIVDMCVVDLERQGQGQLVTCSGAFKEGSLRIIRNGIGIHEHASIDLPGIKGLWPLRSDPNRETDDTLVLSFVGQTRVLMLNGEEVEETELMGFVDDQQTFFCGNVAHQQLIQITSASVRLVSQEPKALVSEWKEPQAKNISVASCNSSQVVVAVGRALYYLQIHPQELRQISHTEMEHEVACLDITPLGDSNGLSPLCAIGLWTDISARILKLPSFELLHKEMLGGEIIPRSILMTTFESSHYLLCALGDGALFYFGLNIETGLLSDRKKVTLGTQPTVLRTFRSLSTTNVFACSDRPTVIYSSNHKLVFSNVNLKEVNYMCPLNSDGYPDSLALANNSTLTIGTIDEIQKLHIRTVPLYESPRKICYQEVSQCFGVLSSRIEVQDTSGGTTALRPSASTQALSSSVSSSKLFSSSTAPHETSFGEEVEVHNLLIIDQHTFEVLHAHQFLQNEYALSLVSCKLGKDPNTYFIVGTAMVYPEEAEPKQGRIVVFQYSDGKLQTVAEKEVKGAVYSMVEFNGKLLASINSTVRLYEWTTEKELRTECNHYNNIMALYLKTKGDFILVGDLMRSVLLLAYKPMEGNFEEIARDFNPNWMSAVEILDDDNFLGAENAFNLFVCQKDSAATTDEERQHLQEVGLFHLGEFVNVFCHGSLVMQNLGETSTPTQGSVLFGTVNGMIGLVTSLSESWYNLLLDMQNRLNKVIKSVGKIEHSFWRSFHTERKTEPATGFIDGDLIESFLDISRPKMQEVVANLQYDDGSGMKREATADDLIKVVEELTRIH

IKZF1 = molecular target: T2, IKZF1 (Homo sapiens, UniProt Q13422+Q96SW2); assay: as above; format: cell-based
T2 construct: effects of the compounds of the present disclosure on the expression of target proteins in cells; endogenous in cells; host or cells: human PBMCs (Milecell Biotechnologies)
T2 sequence (Q13422 whole entry): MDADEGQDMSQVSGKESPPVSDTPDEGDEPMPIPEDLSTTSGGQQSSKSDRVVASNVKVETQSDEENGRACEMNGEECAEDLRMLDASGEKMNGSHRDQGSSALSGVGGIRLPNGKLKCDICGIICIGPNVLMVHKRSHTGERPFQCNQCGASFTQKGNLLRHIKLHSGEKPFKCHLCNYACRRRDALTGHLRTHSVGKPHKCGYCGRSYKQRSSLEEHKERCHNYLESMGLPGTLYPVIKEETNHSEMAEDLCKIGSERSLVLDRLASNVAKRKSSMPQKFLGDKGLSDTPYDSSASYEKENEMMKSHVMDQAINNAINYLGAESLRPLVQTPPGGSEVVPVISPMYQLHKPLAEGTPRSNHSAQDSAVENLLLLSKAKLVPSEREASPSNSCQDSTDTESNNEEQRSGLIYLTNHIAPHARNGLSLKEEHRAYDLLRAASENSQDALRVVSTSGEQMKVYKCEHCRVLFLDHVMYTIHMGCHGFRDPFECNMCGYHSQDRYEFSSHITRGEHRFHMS
T2 sequence (Q96SW2 whole entry): as the sequence (Q96SW2 whole entry) above
T2 sequence (Q16531 whole entry partner): as the sequence (Q16531 whole entry partner) above

IKZF2 = molecular target: T3, IKZF2 (Homo sapiens, UniProt Q96SW2+Q9UKS7); assay: as above; format: cell-based
T3 construct: effects of the compounds of the present disclosure on the expression of target proteins in cells; endogenous in cells; host or cells: human PBMCs (Milecell Biotechnologies)
T3 sequence (Q9UKS7 whole entry): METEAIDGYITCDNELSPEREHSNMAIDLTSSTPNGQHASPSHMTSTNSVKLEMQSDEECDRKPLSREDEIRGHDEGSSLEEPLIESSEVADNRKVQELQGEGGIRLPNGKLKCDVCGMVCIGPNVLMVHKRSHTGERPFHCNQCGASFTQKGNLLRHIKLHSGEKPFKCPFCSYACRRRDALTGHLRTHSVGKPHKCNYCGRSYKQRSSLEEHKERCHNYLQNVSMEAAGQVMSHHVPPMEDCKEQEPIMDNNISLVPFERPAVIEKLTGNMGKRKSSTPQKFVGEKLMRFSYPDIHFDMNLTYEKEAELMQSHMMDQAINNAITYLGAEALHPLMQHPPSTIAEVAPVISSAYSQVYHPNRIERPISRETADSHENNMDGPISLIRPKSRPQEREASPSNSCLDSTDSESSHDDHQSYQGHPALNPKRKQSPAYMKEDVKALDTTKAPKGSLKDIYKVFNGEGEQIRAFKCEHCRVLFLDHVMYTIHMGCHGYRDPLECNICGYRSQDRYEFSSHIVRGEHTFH
T3 sequence (Q96SW2 whole entry): as the sequence (Q96SW2 whole entry) above
T3 sequence (Q16531 whole entry partner): as the sequence (Q16531 whole entry partner) above

IKZF3 = molecular target: T4, IKZF3 (Homo sapiens, UniProt Q96SW2+Q9UKT9); assay: as above; format: cell-based
T4 construct: effects of the compounds of the present disclosure on the expression of target proteins in cells; endogenous in cells; host or cells: human PBMCs (Milecell Biotechnologies)
T4 sequence (Q9UKT9 whole entry): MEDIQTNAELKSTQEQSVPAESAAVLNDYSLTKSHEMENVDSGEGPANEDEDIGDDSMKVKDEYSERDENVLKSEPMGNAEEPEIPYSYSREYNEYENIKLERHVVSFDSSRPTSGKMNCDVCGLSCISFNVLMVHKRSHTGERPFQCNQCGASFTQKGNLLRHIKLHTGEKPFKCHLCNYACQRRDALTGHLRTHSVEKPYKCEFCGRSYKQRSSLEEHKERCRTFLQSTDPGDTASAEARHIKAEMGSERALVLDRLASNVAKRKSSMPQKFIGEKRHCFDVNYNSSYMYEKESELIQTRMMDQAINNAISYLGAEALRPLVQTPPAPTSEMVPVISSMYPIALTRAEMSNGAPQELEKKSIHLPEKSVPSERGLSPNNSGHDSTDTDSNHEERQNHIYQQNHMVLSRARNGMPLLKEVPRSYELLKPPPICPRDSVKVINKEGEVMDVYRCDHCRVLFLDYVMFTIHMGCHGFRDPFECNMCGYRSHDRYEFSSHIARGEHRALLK
T4 sequence (Q96SW2 whole entry): as the sequence (Q96SW2 whole entry) above
T4 sequence (Q16531 whole entry partner): as the sequence (Q16531 whole entry partner) above

WEE1 = molecular target: T5, WEE1 (Homo sapiens, UniProt P30291+Q96SW2); assay: as above; format: cell-based
T5 construct: effects of the compounds of the present disclosure on the expression of target proteins in cells; endogenous in cells; host or cells: human PBMCs (Milecell Biotechnologies)
T5 sequence (P30291 whole entry): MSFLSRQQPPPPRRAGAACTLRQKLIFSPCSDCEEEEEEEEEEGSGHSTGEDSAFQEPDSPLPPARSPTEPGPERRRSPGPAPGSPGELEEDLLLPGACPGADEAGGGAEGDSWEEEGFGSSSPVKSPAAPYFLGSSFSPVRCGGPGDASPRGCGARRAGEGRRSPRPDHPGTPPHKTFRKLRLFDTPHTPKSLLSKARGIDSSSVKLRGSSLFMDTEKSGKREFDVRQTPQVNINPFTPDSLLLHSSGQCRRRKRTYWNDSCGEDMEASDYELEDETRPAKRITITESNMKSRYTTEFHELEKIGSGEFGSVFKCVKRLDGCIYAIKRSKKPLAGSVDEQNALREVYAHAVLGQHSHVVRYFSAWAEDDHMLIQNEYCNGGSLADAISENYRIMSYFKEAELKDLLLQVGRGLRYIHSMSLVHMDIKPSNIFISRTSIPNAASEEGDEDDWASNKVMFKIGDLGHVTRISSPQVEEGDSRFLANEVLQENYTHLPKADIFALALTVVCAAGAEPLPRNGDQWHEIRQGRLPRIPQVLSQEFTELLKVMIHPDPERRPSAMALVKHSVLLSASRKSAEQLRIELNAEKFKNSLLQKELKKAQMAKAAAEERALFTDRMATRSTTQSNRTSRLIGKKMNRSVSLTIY
T5 sequence (Q96SW2 whole entry): as the sequence (Q96SW2 whole entry) above
T5 sequence (Q16531 whole entry partner): as the sequence (Q16531 whole entry partner) above

GSPT1 = assay: as above; format: cell-based, Human
[12] = molecular target: T6, human Cereblon WT GST-tagged protein (Homo sapiens, UniProt Q96SW2); assay: CRBN-binding affinity, HTRF (CEREBLON BINDING kit); conditions: for IC50: CRBN binding, HTRF, 3 hours at room temperature, read-out: HTRF IC50; for inhibition at 0.5 µM: read-out: Inhibition Rate at 0.5 µM (%); for inhibition at 2 µM: read-out: Inhibition Rate at 2 µM (%)
T6 construct: purchased CISBIO 64BDCRBNPEH
T6 sequence (Q96SW2 whole entry): as the sequence (Q96SW2 whole entry) above

[13] = system: Human non-small cell lung cancer cell line: NCI-H1975; assay: Tumor cell proliferation inhibition (CellTiter-Meiluncell luminescent cell viability assay); conditions: NCI-H1975, 96 h, read-out: Inhibitory activity (IC50, nM) on tumor cell proliferation, H1975
Experimental: as §1, §2, §3

[14] = system: Human mantle cell lymphoma cell line: JEKO-1; assay: as above; conditions: JeKo-1, 96 h, read-out: Inhibitory activity (IC50, nM) on tumor cell proliferation, JEKO-1
Experimental: as §1, §2, §3

[15] = system: Human gastric cancer cell line: MGC803; assay: as above; conditions: MGC-803, read-out: Inhibitory activity (IC50, nM) on tumor cell proliferation, MGC803
Experimental: as §2, §3

[16] = read-out: Inhibition Rate at 10 nM (%)
[17] = read-out: Inhibition Rate at 500 nM (%)
[18] = Western blot, 24 hours of compound treatment, compounds tested at 50 nM and 500 nM (concentration for the table not stated)
[19] = 24 hours treatment, compounds at 50 nM and 500 nM (concentration behind the class not stated)

In the case of `Nc1cccc2c1CN(C1CCC(=O)NC1=O)C2=O` (stereo not shown) [lenalidomide, reference compound], the inhibition at 0.01 µM [1] is reported as 10 to 20%, the inhibition at 0.5 µM [1] is reported as 30 to 40% and the inhibition at 0.5 µM [2] is reported as 10 to 20%. It also gave an inhibition at 0.01 µM [3, 16] of 0 to 5%, an inhibition at 0.5 µM [3, 17] of 0 to 5% and an inhibition at 0.01 µM [4, 16] of 10 to 18%. It also gave an inhibition at 0.5 µM [4, 17] of 10 to 18%, an inhibition at 0.01 µM [5] of 0 to 5% and an inhibition at 0.01 µM [6, 16] of 10 to 20%. The inhibition at 0.5 µM [6, 17] was 10 to 20%, the inhibition at 0.01 µM [7, 16] was 5 to 10% and the inhibition at 0.5 µM [7, 17] was 0 to 5%. For the same compound, the inhibition at 0.01 µM [8, 16] was 20 to 30%, the inhibition at 0.5 µM [8, 17] was 10 to 20% and the inhibition at 0.01 µM [9] was 0 to 5%. The inhibition at 0.5 µM [9] was 5 to 10%, the inhibition at 0.01 µM [10] was 5 to 10% and the inhibition at 0.5 µM [10] was 5 to 10%. The inhibition at 0.01 µM [11] was 5 to 10% and the inhibition at 0.5 µM [11] was 5 to 10%.

`Cc1ccc(Sc2ccccc2N2CCN(Cc3ccc4c(c3)C(=S)N(C3CCC(=O)NC3=O)C4)CC2)c(C)c1` (stereo not shown) [GT-05038, 3-(6-((4-(2-((2,4-dimethylphenyl)thio)phenyl)piperazin-1-yl)methyl)-1-thioxoisoindolin-2-yl)piperidine-2,6-dione] was tested, and the “CK1α substrate protein remaining %” value (CK1α; [18]) was “B (80%< substrate protein remaining %≤ 100%)”, the “IKZF 1 substrate protein remaining %” value (IKZF1; [18]) was “A (0% ≤ substrate protein remaining % ≤ 80%)” and the “IKZF2 substrate protein remaining %” value (IKZF2; [18]) was “A (0% ≤ substrate protein remaining % ≤ 80%)”. For the same compound, the “IKZF3 substrate protein remaining %” value (IKZF3; [18]) was “A (0% ≤ substrate protein remaining % ≤ 80%)”, the “Wee1 substrate protein remaining %” value (WEE1; [18]) was “B (80%< substrate protein remaining %≤ 100%)” and the “GSPT1 substrate protein remaining %” value (GSPT1; [18]) was “A (0% ≤ substrate protein remaining % ≤ 80%)”. It also gave an IC50 [12] of 0.5 to 1 µM, an IC50 [1] of 100 to 500 nM and an IC50 [8] of 500 to 1000 nM. The IC50 [13] was 500 to 1000 nM.

With `O=C1CCC(N2Cc3cc(CN4CC=C(c5ccco5)CC4)ccc3C2=S)C(=O)N1` (stereo not shown) [GT-05147, 3-(5-((4-(furan-2-yl)-3,6-dihydropyridin-1(2H)-yl)methyl)-1-thioxoisoindolin-2-yl)piperidine-2,6-dione] the “CK1α substrate protein remaining %” value (CK1α; [18]) was “B (80%< substrate protein remaining %≤ 100%)”, the “IKZF 1 substrate protein remaining %” value (IKZF1; [18]) was “A (0% ≤ substrate protein remaining % ≤ 80%)” and the “IKZF2 substrate protein remaining %” value (IKZF2; [18]) was “A (0% ≤ substrate protein remaining % ≤ 80%)”. The “IKZF3 substrate protein remaining %” value (IKZF3; [18]) was “A (0% ≤ substrate protein remaining % ≤ 80%)”, the “Wee1 substrate protein remaining %” value (WEE1; [18]) was “A (0% ≤ substrate protein remaining % ≤ 80%)” and the “GSPT1 substrate protein remaining %” value (GSPT1; [18]) was “A (0% ≤ substrate protein remaining % ≤ 80%)”. For the same compound, the IC50 [12] was < 0.1 µM, the IC50 [1] was 10 to 50 nM and the IC50 [8] was 100 to 500 nM. It also gave an IC50 [14] of 100 to 500 nM.

In the case of `CC(C)c1cc2c(C3=CCN(Cc4ccc5c(c4)CN(C4CCC(=O)NC4=O)C5=S)CC3)ncnc2s1` (stereo not shown) [GT-09317, 3-(5-((4-(6-isopropylthieno[2,3-d]pyrimidin-4-yl)-3,6-dihydropyridin-1(2H)-yl)methyl)-1-thioxoisoindolin-2-yl)piperidine-2,6-dione], the “CK1α substrate protein remaining %” value (CK1α; [19]) is reported as “B (80%< substrate protein remaining %≤ 100%)”, the “IKZF 1 substrate protein remaining %” value (IKZF1; [19]) is reported as “A (0% ≤ substrate protein remaining % ≤ 80%)” and the “IKZF2 substrate protein remaining %” value (IKZF2; [19]) is reported as “A (0% ≤ substrate protein remaining % ≤ 80%)”. The “IKZF3 substrate protein remaining %” value (IKZF3; [19]) was “A (0% ≤ substrate protein remaining % ≤ 80%)”, the “Wee1 substrate protein remaining %” value (WEE1; [19]) was “A (0% ≤ substrate protein remaining % ≤ 80%)” and the “GSPT1 substrate protein remaining %” value (GSPT1; [19]) was “A (0% ≤ substrate protein remaining % ≤ 80%)”. It also gave an inhibition at 0.5 µM [12] of 40 to 53%, an inhibition at 2 µM [12] of 80 to 100% and an inhibition at 0.01 µM [1] of 10 to 20%. It also gave an inhibition at 0.5 µM [1] of 60 to 70%, an inhibition at 0.01 µM [5] of 5 to 10% and an inhibition at 0.5 µM [5] of 80 to 100%. For the same compound, the inhibition at 0.01 µM [9] was 80 to 100%, the inhibition at 0.5 µM [9] was 100 to 110% and the inhibition at 0.01 µM [10] was 80 to 100%. The inhibition at 0.5 µM [10] was 100 to 110%, the inhibition at 0.01 µM [11] was 50 to 60% and the inhibition at 0.5 µM [11] was 80 to 100%.

In the case of `O=C1CCC(N2Cc3cc(CN4CC=C(c5ncnc6sc(-c7ccccc7)cc56)CC4)ccc3C2=S)C(=O)N1` (stereo not shown) [GT-09319, 3-(5-((4-(6-phenylthieno[2,3-d]pyrimidin-4-yl)-3,6-dihydropyridin-1(2H)-yl)methyl)-1-thioxoisoindolin-2-yl)piperidine-2,6-dione], the “CK1α substrate protein remaining %” value (CK1α; [19]) is reported as “B (80%< substrate protein remaining %≤ 100%)”, the “IKZF 1 substrate protein remaining %” value (IKZF1; [19]) is reported as “A (0% ≤ substrate protein remaining % ≤ 80%)” and the “IKZF2 substrate protein remaining %” value (IKZF2; [19]) is reported as “A (0% ≤ substrate protein remaining % ≤ 80%)”. The “IKZF3 substrate protein remaining %” value (IKZF3; [19]) was “A (0% ≤ substrate protein remaining % ≤ 80%)”, the “Wee1 substrate protein remaining %” value (WEE1; [19]) was “A (0% ≤ substrate protein remaining % ≤ 80%)” and the “GSPT1 substrate protein remaining %” value (GSPT1; [19]) was “A (0% ≤ substrate protein remaining % ≤ 80%)”. For the same compound, the inhibition at 0.5 µM [12] was 60 to 80%, the inhibition at 2 µM [12] was 80 to 100% and the inhibition at 0.01 µM [2, 16] was 5 to 10%. It also gave an inhibition at 0.5 µM [2] of 50 to 60%, an inhibition at 0.01 µM [5] of 20 to 30% and an inhibition at 0.5 µM [5] of 70 to 80%. The inhibition at 0.01 µM [9] was 80 to 100%, the inhibition at 0.5 µM [9] was 80 to 100% and the inhibition at 0.01 µM [10] was 70 to 80%. It also gave an inhibition at 0.5 µM [10] of 80 to 100%, an inhibition at 0.01 µM [11] of 40 to 50% and an inhibition at 0.5 µM [11] of 80 to 100%.

For `O=C1CCC(N2Cc3cc(CN4CCN(C(c5ccccc5)c5ccccc5)CC4)ccc3C2=S)C(=O)N1` (stereo not shown) [GT-05104, 3-(5-((4-benzhydrylpiperazin-1-yl)methyl)-1-thioxoisoindolin-2-yl)piperidine-2,6-dione], the “CK1α substrate protein remaining %” value (CK1α; [18]) was “B (80%< substrate protein remaining %≤ 100%)”, the “IKZF 1 substrate protein remaining %” value (IKZF1; [18]) was “B (80%< substrate protein remaining %≤ 100%)” and the “IKZF2 substrate protein remaining %” value (IKZF2; [18]) was “B (80%< substrate protein remaining %≤ 100%)”. The “IKZF3 substrate protein remaining %” value (IKZF3; [18]) was “B (80%< substrate protein remaining %≤ 100%)”, the “Wee1 substrate protein remaining %” value (WEE1; [18]) was “A (0% ≤ substrate protein remaining % ≤ 80%)” and the “GSPT1 substrate protein remaining %” value (GSPT1; [18]) was “A (0% ≤ substrate protein remaining % ≤ 80%)”. The IC50 [12] was 0.5 to 1 µM, the IC50 [1] was < 5 nM and the IC50 [8] was 100 to 500 nM. It also gave an IC50 [13] of 100 to 500 nM, an IC50 [14] of 100 to 500 nM and an IC50 [15] of 50 to 100 nM.
